# Experiments:
# [1] = design: method as in PMID 31869735; conditions: Ga complex; cited from earlier work
# [2] = Biodistribution study in normal mice; format: in vivo; conditions: ddY mice, i.v.
# Protocol: The animal experimental protocols used were approved by the Committee on Animal Experimentation of Kanazawa University (AP-204165). All experiments with animals were conducted in strict accordance with the Guidelines for the Care and Use of Laboratory Animals of Kanazawa University. Mice were housed together in individually ventilated cages with three mice per cage. The animals were housed at 23°C with a 12 h light/dark schedule with free access to a standardized mouse diet and provided drinking water ad libitum water. Autoclaved wood chips were applied as bedding material. The behavior of the mice during the experimental period was normal. Seventy-five ddY mice (male; 6-week-old; 29–33 g) were purchased from Japan SLC Inc., Hamamatsu, Japan. The mice were randomly divided into five groups (n = 15 mice per group) with five different time points for each group (n = 3 mice per time point).
# Radiotracers, [^67Ga]5, [^67Ga]6, [^67Ga]7, or [^67Ga]8, in saline containing 5% ethanol and 0.1% tween-80, or [^123I]BMIPP (74 kBq/100 μL, respectively) was intravenously injected into mice via the tail. The ddY mice were sacrificed by decapitation at 0.5, 2, 5, 20, and 60 min. Tissues of interest were removed and weighed. The radioactivity of the tissues was determined using an auto well gamma counter. The data were expressed as percent injected dose per gram tissue (%ID/g).
structure (smiles),measurement,setting,value
O=C([O-])CN1CCN(CC(=O)[O-])CCN(CC(=O)O)CCN(CC(=O)[O-])CC1.[Ga+3] [Ga-DOTA],Stability constant (log K),[1],21.3
"CC(CCCCCCCCCCCCc1ccc([123I])cc1)CC(=O)O (stereo not drawn) [[^123I]BMIPP, β-methyl [^123I]iodophenyl-pentadecanoic acid]",Blood radioactivity,[2]; 0.5 min after injection,20.30 (1.55) %ID/g
same,Bone radioactivity,[2]; 0.5 min after injection,2.63 (0.33) %ID/g
same,Brain radioactivity,[2]; 0.5 min after injection,0.51 (0.11) %ID/g
same,Kidney radioactivity,[2]; 0.5 min after injection,5.21 (0.42) %ID/g
same,Large intestine radioactivity,[2]; 0.5 min after injection,0.42 (0.07) %ID/g
same,Liver radioactivity,[2]; 0.5 min after injection,12.44 (2.40) %ID/g
same,Lung radioactivity,[2]; 0.5 min after injection,24.09 (4.19) %ID/g
same,Muscle radioactivity,[2]; 0.5 min after injection,2.85 (0.69) %ID/g
same,Pancreas radioactivity,[2]; 0.5 min after injection,2.43 (0.68) %ID/g
same,Small intestine radioactivity,[2]; 0.5 min after injection,0.91 (0.15) %ID/g
same,Spleen radioactivity,[2]; 0.5 min after injection,4.91 (1.27) %ID/g
same,Stomach radioactivity,[2]; 0.5 min after injection,0.60 (0.11) %ID/organ
same,Heart uptake,[2]; 0.5 min after injection (initial myocardial uptake),21.36 (2.73) %ID/g
same,Blood radioactivity,[2]; 2 min after injection,6.01 (0.74) %ID/g
same,Bone radioactivity,[2]; 2 min after injection,1.97 (0.03) %ID/g
same,Brain radioactivity,[2]; 2 min after injection,0.22 (0.03) %ID/g
same,Heart uptake,[2]; 2 min after injection,27.60 (3.15) %ID/g
same,Kidney radioactivity,[2]; 2 min after injection,5.27 (0.61) %ID/g
same,Large intestine radioactivity,[2]; 2 min after injection,0.68 (0.14) %ID/g
same,Liver radioactivity,[2]; 2 min after injection,21.35 (0.89) %ID/g
same,Lung radioactivity,[2]; 2 min after injection,15.88 (1.94) %ID/g
same,Muscle radioactivity,[2]; 2 min after injection,3.24 (0.49) %ID/g
same,Pancreas radioactivity,[2]; 2 min after injection,6.11 (1.90) %ID/g
same,Small intestine radioactivity,[2]; 2 min after injection,1.33 (0.23) %ID/g
same,Spleen radioactivity,[2]; 2 min after injection,3.76 (1.18) %ID/g
same,Stomach radioactivity,[2]; 2 min after injection,0.70 (0.17) %ID/organ
same,Blood radioactivity,[2]; 5 min after injection,6.75 (1.07) %ID/g
same,Bone radioactivity,[2]; 5 min after injection,2.29 (0.27) %ID/g
same,Brain radioactivity,[2]; 5 min after injection,0.25 (0.03) %ID/g
same,Heart uptake,[2]; 5 min after injection,28.03 (5.37) %ID/g
same,Kidney radioactivity,[2]; 5 min after injection,5.93 (1.23) %ID/g
same,Large intestine radioactivity,[2]; 5 min after injection,0.66 (0.11) %ID/g
same,Liver radioactivity,[2]; 5 min after injection,16.33 (4.41) %ID/g
same,Lung radioactivity,[2]; 5 min after injection,16.87 (3.08) %ID/g
same,Muscle radioactivity,[2]; 5 min after injection,3.42 (1.06) %ID/g
same,Pancreas radioactivity,[2]; 5 min after injection,5.66 (4.30) %ID/g
same,Small intestine radioactivity,[2]; 5 min after injection,1.39 (0.27) %ID/g
same,Spleen radioactivity,[2]; 5 min after injection,3.09 (1.26) %ID/g
same,Stomach radioactivity,[2]; 5 min after injection,0.95 (0.28) %ID/organ
same,Blood radioactivity,[2]; 20 min after injection,10.84 (0.20) %ID/g
same,Bone radioactivity,[2]; 20 min after injection,2.66 (0.22) %ID/g
same,Brain radioactivity,[2]; 20 min after injection,0.43 (0.07) %ID/g
same,Heart uptake,[2]; 20 min after injection,23.41 (3.39) %ID/g
same,Kidney radioactivity,[2]; 20 min after injection,8.03 (0.09) %ID/g
same,Large intestine radioactivity,[2]; 20 min after injection,1.20 (0.04) %ID/g
same,Liver radioactivity,[2]; 20 min after injection,6.54 (0.43) %ID/g
same,Lung radioactivity,[2]; 20 min after injection,16.21 (1.50) %ID/g
same,Muscle radioactivity,[2]; 20 min after injection,3.51 (0.21) %ID/g
same,Pancreas radioactivity,[2]; 20 min after injection,9.80 (3.25) %ID/g
same,Small intestine radioactivity,[2]; 20 min after injection,1.97 (0.11) %ID/g
same,Spleen radioactivity,[2]; 20 min after injection,1.73 (0.55) %ID/g
same,Stomach radioactivity,[2]; 20 min after injection,1.06 (0.05) %ID/organ
same,Blood radioactivity,[2]; 60 min after injection,10.38 (2.03) %ID/g
same,Bone radioactivity,[2]; 60 min after injection,2.42 (0.33) %ID/g
same,Brain radioactivity,[2]; 60 min after injection,0.39 (0.04) %ID/g
same,Heart uptake,[2]; 60 min after injection,20.92 (3.67) %ID/g
same,Kidney radioactivity,[2]; 60 min after injection,6.24 (0.62) %ID/g
same,Large intestine radioactivity,[2]; 60 min after injection,1.20 (0.15) %ID/g
same,Liver radioactivity,[2]; 60 min after injection,4.34 (0.61) %ID/g
same,Lung radioactivity,[2]; 60 min after injection,13.11 (3.05) %ID/g
same,Muscle radioactivity,[2]; 60 min after injection,3.87 (0.80) %ID/g
same,Pancreas radioactivity,[2]; 60 min after injection,8.04 (3.89) %ID/g
same,Small intestine radioactivity,[2]; 60 min after injection,1.88 (0.29) %ID/g
same,Spleen radioactivity,[2]; 60 min after injection,1.68 (0.81) %ID/g
same,Stomach radioactivity,[2]; 60 min after injection,1.06 (0.17) %ID/organ
